Data: patent EP2137192B1, “Derivatives of galantamine as pro-drugs for the treatment of human brain diseases” (priority 2008, dated 2009)

What was measured:
[1] = logP (partition coefficient); format: physicochemical; conditions: source of the values not stated
Excerpt: "logP" is defined as the decadic logarithm of the partition coefficient P which is the ratio of […], as the neutral molecule.

[2] = target: T1, a4ß2 neuronal nicotinic acetylcholine receptor (Homo sapiens, UniProt P17787+P43681); assay: Allosteric potentiation of nAChR in HEK-293 cells, whole-cell patch clamp; format: cell-based; conditions: increase in response to acetylcholine, Figure 3
T1 construct: expressed in transfected cells; host or cells: HEK-293
T1 sequence (P43681 29-627 limits assumed): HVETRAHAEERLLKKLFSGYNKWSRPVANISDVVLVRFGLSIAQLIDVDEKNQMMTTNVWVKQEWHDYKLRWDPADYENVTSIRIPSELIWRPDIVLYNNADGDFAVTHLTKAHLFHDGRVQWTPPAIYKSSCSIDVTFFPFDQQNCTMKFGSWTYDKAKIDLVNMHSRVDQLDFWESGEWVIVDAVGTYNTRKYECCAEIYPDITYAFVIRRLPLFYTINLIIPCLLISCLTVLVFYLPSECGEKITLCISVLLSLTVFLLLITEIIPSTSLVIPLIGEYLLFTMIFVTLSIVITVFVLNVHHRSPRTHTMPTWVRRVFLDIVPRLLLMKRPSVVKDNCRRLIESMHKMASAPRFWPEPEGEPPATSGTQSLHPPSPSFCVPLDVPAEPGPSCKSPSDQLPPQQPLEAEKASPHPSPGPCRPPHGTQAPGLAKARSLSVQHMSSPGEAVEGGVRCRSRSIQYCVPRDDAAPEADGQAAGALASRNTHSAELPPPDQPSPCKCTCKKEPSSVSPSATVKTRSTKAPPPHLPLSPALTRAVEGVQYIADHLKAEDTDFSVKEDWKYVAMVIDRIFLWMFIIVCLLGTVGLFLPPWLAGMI
T1 sequence (P17787 26-502): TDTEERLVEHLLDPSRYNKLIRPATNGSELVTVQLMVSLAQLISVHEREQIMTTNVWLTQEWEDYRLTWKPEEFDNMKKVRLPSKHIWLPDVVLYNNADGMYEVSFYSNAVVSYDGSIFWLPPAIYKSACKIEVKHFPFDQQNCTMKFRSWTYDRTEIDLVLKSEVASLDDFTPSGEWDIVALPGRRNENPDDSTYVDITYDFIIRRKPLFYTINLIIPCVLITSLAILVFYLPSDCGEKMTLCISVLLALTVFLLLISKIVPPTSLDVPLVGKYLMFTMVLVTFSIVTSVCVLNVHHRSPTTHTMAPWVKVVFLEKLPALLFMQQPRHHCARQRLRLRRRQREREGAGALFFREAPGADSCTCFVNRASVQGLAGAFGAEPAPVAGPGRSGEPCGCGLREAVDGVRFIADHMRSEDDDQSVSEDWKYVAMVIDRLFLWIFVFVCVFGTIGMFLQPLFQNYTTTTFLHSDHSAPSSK
Experimental: (§1) 1983;91:49-60. […] Butyrylcholinesterase, 25 units/ml, was used. Reaction temperature was 37°C.
Investigation of the allosteric modulation effect of drug candidates on nicotinic acetylcholine receptors (nAChRs) expressed in HEK-293 cells by electrophysiology. Results shown as figure 3
Single HEK-293 cells expressing either human α4β2, human α3β4, or chimeric chicken α7 (with mouse 5HT3) nAChR were plated on fibronectin-coated cover slips for 3 days before measurement. The selected nAChR containing cells were placed in the recording bath, filled with extracellular buffer (145 mM NaCl, 5 mM KCl, 1 mM MgCl2, 2 mM CaCl2, 10 mM D-glucose, 10 mM HEPES, pH 7.3, approximately 300 mOsm). […] A programmable puller (Sutter, USA) was used to prepare a twin pair of ready for use pipettes. […] 1, 5, 10, 50, 100, 500, 1,000, 5,000 and 10,000 nM, and solutions were applied to the cell surface during 500 ms pulses through the U-tube, and then corresponding currents, digitized to 10 kHz, were recorded for 10 s. […] The averaged peak amplitudes of the currents, measured in the presence of selected compound concentrations, were compared with those determined in the absence of compounds (control) and they were calculated as % of control. […]

brain cholinesterase = target: T2, brain cholinesterase (Mus musculus, UniProt P21836); assay: Inhibition of brain esterase, modified Ellman test in mouse brain homogenate; format: biochemical; conditions: 20% mouse brain homogenate, 200 µM acetylthiocholine; Figure 1
T2 construct: from tissue; host or cells: mouse brain homogenate
T2 sequence (P21836 32-614): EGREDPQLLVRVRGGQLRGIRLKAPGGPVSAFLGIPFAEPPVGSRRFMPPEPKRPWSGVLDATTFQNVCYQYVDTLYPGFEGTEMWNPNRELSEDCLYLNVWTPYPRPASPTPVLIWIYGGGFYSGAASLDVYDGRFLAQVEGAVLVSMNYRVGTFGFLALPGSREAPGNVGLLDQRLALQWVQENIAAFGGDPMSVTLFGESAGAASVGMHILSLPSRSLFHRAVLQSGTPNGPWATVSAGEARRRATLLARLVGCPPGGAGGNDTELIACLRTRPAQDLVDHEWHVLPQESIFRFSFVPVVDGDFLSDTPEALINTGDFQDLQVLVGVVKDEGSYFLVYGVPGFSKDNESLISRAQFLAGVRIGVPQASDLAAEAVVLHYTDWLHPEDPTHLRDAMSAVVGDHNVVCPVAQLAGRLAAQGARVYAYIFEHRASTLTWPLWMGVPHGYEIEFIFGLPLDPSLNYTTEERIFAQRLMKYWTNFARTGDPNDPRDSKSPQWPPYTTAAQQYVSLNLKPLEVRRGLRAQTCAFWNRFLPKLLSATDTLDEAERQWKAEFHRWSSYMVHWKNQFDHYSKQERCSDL
Experimental: as §1
The brain is removed from the animal (mouse), shock frozen in liquid nitrogen and stored at minus 80°C until use. Before preparing the extract, the frozen brain is thawed on ice and the weight is determined. Ice cold buffer (130 mM NaCl, 5 mM KCl, 2.5 mM CaCl2, 1 mM MgCl2, 5 mM Glucose, 5 mM HEPES, pH 7.4) is added to the thawed mouse brain (1:4, weight to volume, resulting in a 20 % brain homogenate). The tissue is then homogenized in a potter homogeniser on ice, moving the piston up and down 11 times at 240 rpm. The freshly prepared mouse brain homogenate is divided into aliquots.
A modified Ellmann's esterase test is used. Briefly the method relies on the cleavage of the substrate acetylthiocholine to acetate and thiocholine. […] The inhibition is expressed as per cent of the non inhibited reaction according to following equation: % Inhibition = 100*(1-(Slopeinhibited/Slopenoninhibited)). […]

[3] = Reversal from scopolamine-induced amnesia in mice (T-maze alternation); format: in vivo; conditions: i.p., Figure 6
Experimental: as §1
Gln 1062, Gln 0979 and galanthamine were dissolved in 15% -hydroxypropyl-β-cyclodextrin in 96 mM NaCl (isotonic) supplied by the sponsor. Gln 1062 and Gln 0979 were used in concentrations of […], 0.03, 0.1 and 0.2 mg/ml, which when given in a volume of 10 ml/kg result in doses of 0.1, 0.3, 1 and 2 mg/kg i.p., respectively. Galanthamine was used in concentrations of 0.03, 0.1, 0.2 and 0.5 mg/ml, which when given in a volume of 10 ml/kg result in doses of 0.3, 1, 2 and 5 mg/kg i.p., respectively. Control animals received 15% -hydroxypropyl-β-cyclodextrin in 96 mM NaCl injection as a vehicle. […]
The potential cognitive enhancing property of Gln 1062, Gln 0979 and galanthamine were evaluated in scopolamine-treated mice in the T-maze alternation model under the same experimental conditions. […]
Memory performance was assessed by the percentage of spontaneous alternation in the T-maze. […]
The percentage of alternation over the 14 free-choice trials was determined for each mouse and was used as an index of working memory performance. […]
Analysis of variance (ANOVA) was performed on the result data. […] The drug induced reversion of scopolamine-induced memory deficit was calculated by setting the respective response of the saline/vehicle group as 100% and the scopolamine/vehicle group as 0% reversion. […]

in vivo = conditions: for Co (Brain), highest pro-galantamine concentration achieved in mouse brain: i.v. injection of 3 mg/kg, for Gal: galantamine after the same amount of galantamine; for Kp: in vivo
Experimental: In table 1, the key pharmacokinetic data of benzoyl-galantamine, of several other R1-pro-galantamines and of galantamine (for comparison) are listed. Table 1: Pharmacokinetic data of several R1-pro-galantamines in the mouse
Co is the highest pro-galantamine concentration (ng/ml) achieved in mouse brain after i.v. injection of 3 mg/kg of pro-galantamine. R-Pro ist he brain-to-blood concentration ratio of pro-galantamine, R-Gal that of galantamine under these experimental conditions. For comparison, Co and R-Gal are also provided for i.v. injection of the same amount of galantamine.
• Figure 1: Brain esterase inhibition by galantamine and several pro-galantamines. A 20% mouse brain homogenate was used, supplemented with 200 µM of acetylthiocholine as substrate, and the initial reaction kinetics were measured according to Riddles PW, Blakeley RL, Zerner B., "Reassessment of Ellman's reagent." Methods Enzymol. 1983;91:49-60. […] In derivative Gln 1063 R1 in formula I is -O-Si(CH3)2-C(CH3)2-C(CH3)2H. • Figure 2: Enzymatic cleavage of pro-galantamine to galantamine. Butyrylcholinesterase, 25 units/ml, was used. Reaction temperature was 37°C. Appearance of the fluorescent reaction product galantamine was determined by fluorescence detection. • Figure 3: Interaction of galantamine and pro-galantamine with a4ß2 neuronal nicotinic acetylcholine receptor ectopically expressed in HEK-293 cells. The increase in response to acetylcholine in the presence of galantamine and Gln-1062, respectively, was determined by whole-cell patch clamp recording. […] Scopolamine induces a memory deficit that can be measured by […] alternation in a T-maze trial. The cognition enhancing drugs were i.p. injected at several different doses together with scopolamine 20 min before a T-maze trial. Recovery was measured as a function of dose, and the EC50 was determined for each drug.
Determination of the pharmacokinetic profiles of Gln-1062 and its cleavage product galantamine in blood and brain. Determine the brain-to-blood concentration ratios of Gln-1062 and its cleavage product galantamine, and assess the blood-brain barrier penetration capacities.
Blood samples were collected from the retro-orbital plexus. 0.5 ml of blood was collected into a pre-labeled polypropylene micro centrifuge tube containing sodium citrate as the anticoagulant, and kept on ice.
Immediately after blood withdrawal, brain was perfused with phosphate buffer saline (pH 7.4), removed and frozen on dry ice.
Brain samples were thawed on ice and weighed. An appropriate volume ice cold homogenizing media (methanol: water::20:80,v/v) added. On ice, homogenized the brain sample with the polytron homogenizer and make up the volume with homogenizing media to get 1 gm of brain per 4 mL of homogenate. After homogenizing, immediately freezed the brain homogenate samples at -80°C until analysis.

[4] = galantamine administered as the unmodified drug; cited from earlier work

| Compound | logP [1] | maximal enhancement of response [2] | inhibition of brain esterase (brain cholinesterase) | efficacy in reversing scopolamine-induced amnesia relative to galantamine [3] | brain-to-blood concentration ratio (RBB-proGal) (in vivo; mice) | concentration in blood at start of curve (in vivo; mouse blood, 3mg/kg, Figure 4b) | Co (Brain), highest pro-galantamine concentration achieved in mouse brain (in vivo) [ng/mL] | R-Pro, brain-to-blood concentration ratio of pro-galantamine (in vivo; mouse, i.v. 3 mg/kg of pro-galantamine) | R-Gal, brain-to-blood concentration ratio of galantamine (in vivo; mouse, i.v. 3 mg/kg of pro-galantamine, for Gal: same amount of galantamine) | Kp (in vivo; mouse) | Kp (in vivo; mouse, iv, 3 mg/kg) | brain-to-plasma ratio [4] |
| --- | --- | --- | --- | --- | --- | --- | --- | --- | --- | --- | --- | --- |
| COc1ccc2c3c1O[C@H]1C[C@@H](OC(=O)c4ccccc4)C=C[C@@]31CCN(C)C2 [Gln 1062, (4aS,6R,8aS)-4a,5,9,10,11,12-Hexahydro-3-methoxy-11-methyl-6H-benzofuro[3a,3,2-ef][2]benzazepin-6-ol, benzoate (ester)] | 3 | ~ 17% | little, if any cholinesterase inhibitory activity | approximately 4 times | > 19 | about 0.3 µg/g | 4812 | 19.3 | 2.2 | – | – | – |
| COc1ccc2c3c1O[C@H]1C[C@@H](O)C=C[C@@]31CCN(C)C2 [Gal, galantamine] | 1.7 | ~ 40% | – | – | – | – | 1741 | – | – | ~1.3 | 1.2 | ~ 1.3 |
